In US5859007A, “CCK or gastrin modulating benzo [b][1,4] diazepines derivatives” (Glaxo Wellcome Inc., priority 1994, dated 1999):

System: isolated guinea pig gallbladder
Assay: Functional activity in isolated guinea pig gallbladder preparation
Format: cell-based
Settings: Cavia porcellus, expressed as % CCK-induced maximal response; for activation at 1 µM: 1 × 10^-6 M test compound, read-out: %Contraction (1 × 10^-6 M); for activation at 30 µM: 3 × 10^-5 M test compound, read-out: % Contraction (3 × 10^-5 M)
Method: 3. GUINEA PIG GALL BLADDER ASSAY
Gallbladders are removed from guinea pigs sacrificed by cervical dislocation. The isolated gallbladders are cleaned of adherent connective tissue and cut into two rings from each animal (2-4 mm in length). The rings are subsequently suspended in organ chambers containing a physiological salt solution (118.4 mM NaCl, 4.7 mM KCl, 1.2 mM MgSO4, 2.5 mM CaCl2, 1.2 mM KH2 […], 25 mM NaHCO3, 11.1 mM dextrose). The bathing solution is maintained at 37° C. and aerated with 95% O2 /5% CO2. Tissues are connected via gold chains and stainless steel mounting wires to isometric force displacement transducers (Grass, Model FT03 D). Responses are then recorded on a polygraph (Grass, Model 7E).
Rings are gradually stretched (over a 120 min. period) to a basal resting tension of 1 gm which is maintained throughout the experiment. During the basal tension adjustment period, the rings are exposed to acetylcholine (10^-6 M) four times to verify tissue contractility. The tissues are then exposed to a submaximal dose of sulfated CCK-8 (Sigma, 3×10^-9 M). After obtaining a stable response, the tissues are washed out 3 times rapidly and every 5 to 10 minutes for 1 hour to reestablish a stable baseline.
Compounds are dissolved in dimethylsulfoxide ([…]) followed by a concentration-response curve to sulfated CCK-8 (10^-10 to 10^-6 M) in the presence of the highest dose of the test compound. As a final test, ACH (10 mM) is added to induce maximal contraction. A minimum of three determinations of activity are made for each test compound.

| SMILES | activation at 1 µM | activation at 30 µM |
| --- | --- | --- |
| COc1ccc(N(C(=O)CN2C(=O)C(Cc3c[nH]c4ccccc34)C(=O)N(c3ccccc3)c3ccccc32)C(C)C)cc1 (centres unmarked) [Example 22, 2-[3-(1H-indol-3-ylmethyl)-2,4-dioxo-5-phenyl-2,3,4,5-tetrahydro-benzo[b][1,4]diazepin-1-yl]-N-isopropyl-N-(4-methoxy-phenyl) acetamide] | 61% | 71% |
| COc1ccc(N(C(=O)CN2C(=O)C(C)(Cc3c[nH]c4ccccc34)C(=O)N(c3ccccc3)c3ccccc32)C(C)C)cc1 (centres unmarked) [Example 23, 2-[3-(1H-indol-3-ylmethyl)-3-methyl-2,4-dioxo-5-phenyl-2,3,4,5-tetrahydro-benzo[b][1,4]diazepin-1-yl]-N-isopropyl-N-(4-methoxy-phenyl) acetamide] |  | 50% |
| COc1ccc(N(C(=O)CN2C(=O)C(C)(Cc3cn(C)c4ccccc34)C(=O)N(c3ccccc3)c3ccccc32)C(C)C)cc1 (centres unmarked) [Example 24, 2-[3-(N-methyl-indol-3-ylmethyl)-3-methyl-2,4-dioxo-5-phenyl-2,3,4,5-tetrahydro-benzo[b][1,4]diazepin-1-yl]-N-isopropyl-N-(4-methoxy-phenyl) acetamide] |  | 34% |
| COc1ccc(N(C(=O)CN2C(=O)C(C)(CC(=O)Nc3cccc(F)c3)C(=O)N(c3ccccc3)c3ccccc32)C(C)C)cc1 (centres unmarked) [Example 25, N-Isopropyl-N-(4-methoxy-phenyl)-2-[3-(3-fluoro-phenylcarbamoylmethyl)-3-methyl-2,4-dioxo-5-phenyl-2,3,4,5-tetrahydro-benzo[b][1,4]diazepin-1-yl]acetamide] | 88% |  |
| COCC1(CC(=O)Nc2ccccc2)C(=O)N(CC(=O)N(c2ccc(OC)cc2)C(C)C)c2ccccc2N(c2ccccc2)C1=O (centres unmarked) [Example 26, N-Isopropyl-2-(3-methoxymethyl-2,4-dioxo-5-phenyl-3-phenylcarbamoylmethyl-2,3,4,5-tetrahydro-benzo[b][1,4]diazepin-1-yl)-N-(4-methoxy-phenyl)-acetamide] | 91% |  |
| COc1ccc(N(C(=O)CN2C(=O)C(Cc3nn(Cc4ccccc4)c4ccccc34)C(=O)N(c3ccccc3)c3ccccc32)C(C)C)cc1 (centres unmarked) [Example 27, 2-[3-(1-Benzyl-1H-indazol-3-ylmethyl)-2,4-dioxo-5-phenyl-2,3,4,5-tetrahydro-benzo[b][1,4]diazepin-1-yl]-N-isopropyl-N-(4-methoxy-phenyl) acetamide] |  | 40% |
| COc1ccc(N(C(=O)CN2C(=O)C(CN(C)C(=O)c3ccccc3)C(=O)N(c3ccccc3)c3ccccc32)C(C)C)cc1 (centres unmarked) [Example 28, N-{1-[Isopropyl-(4-methoxy-phenyl)-carbamoylmethyl]-2,4-dioxo-5 phenyl-2,3,4,5-tetrahydro-1H-benzo[b][1,4]diazepin-3-ylmethyl}-N-methyl benzamide] | 3% |  |
| COc1ccc(N(C(=O)CN2C(=O)C(CC(=O)O)(CC(=O)Nc3ccccc3)C(=O)N(c3ccccc3)c3ccccc32)C(C)C)cc1 (centres unmarked) [Example 29, {1-[Isopropyl-(4-methoxy-phenyl)-carbamoylmethyl]-2,4-dioxo-5-phenyl-3-phenylcarbamoylmethyl-2,3,4,5-tetrahydro-1H-benzo[b][1,4]diazepin-3-yl}acetic acid] | 65% | 85% |
| COc1ccc(N(C(=O)CN2C(=O)C(C)(Cc3n[nH]c4ccccc34)C(=O)N(c3ccccc3)c3ccccc32)C(C)C)cc1 (centres unmarked) [Example 30, 2-[3-(1H-Indazol-3-ylmethyl)-3-methyl-2,4-dioxo-5-phenyl-2,3,4,5-tetrahydro-benzo[b][1,4]diazepin-1-yl]-N-isopropyl-N-(4-methoxy-phenyl) acetamide] | 75% | 70% |
| COc1ccc(N(C(=O)CN2C(=O)C(Cc3coc4ccccc34)C(=O)N(c3ccccc3)c3ccccc32)C(C)C)cc1 (centres unmarked) [Example 32] | 38% |  |
| COc1ccc(N(C(=O)CN2C(=O)C(C)(Cc3coc4ccccc34)C(=O)N(c3ccccc3)c3ccccc32)C(C)C)cc1 (centres unmarked) [Example 33] | 53% |  |
